Consider 22 compounds from US8378117B2 (priority 2005, dated 2013).

The target of one experiment is T1, CB1 receptor (Homo sapiens, UniProt P21554).
T1 construct: expressed in transfected cells
In words: Binding assay for CB1 agonists or inverse agonists (SK-N-MC membranes, [3H]-CP-55,940). How it is done: (§1) The human CB1 and CB2 receptors were stably expressed in SK-N-MC cells transfected with pcDNA3 CB-1 (human) or pcDNA3 CB-2 (human). The cells were grown in T-180 cell culture flasks under standard cell culture conditions at 37° C. in a 5% CO2 atmosphere. The cells were harvested by trysinization and homogenized in a homogenization buffer (10 mM Tris, 0.2 mM MgCl2, 5 mM KCl, with protease inhibitors aprotinin, leupeptin, pepstatin A and bacitracin) and centrifuged (2000 g). The supernatant was then centrifuged in 2M sucrose (31,300 g) to produce a semi-purified membrane pellet. The pellet was resuspended in homogenization and stored at −80° C.
(§2) On the day of the assay, the pellet was thawed on ice and diluted in assay buffer (50 mM Tris-HCl, 5 mM MgCl2, 2.5 mM EDTA, 0.5 mg/mL fatty acid free bovine serum aldumin, pH 7.5). The diluted membrane pellet was added with buffer, either a test compound or vehicle standard and the radioligand [H]^3+-CP-55,940 (0.2 mM) to the wells of a 96-well polypropylene plate. Non-specific binding was measured in wells containing WIN 55,212 (10 uM). The plate was covered and incubated for 90 minutes at 30° C. The contents were then aspirated onto a Packard Unifilter GF/C filter bottom plate prewet with 0.5% polyethyleneimine. The wells of the polypropylene plate were rinsed and aspirated seven times with a 0.9% saline-0.5% Tween 20 solution. The Unifilter plate was dried, a scintillation cocktail was added to each well and the counts representing binding were quantitated in a TopCount scintillation counter.
(§3) For compounds tested, an IC50 binding value was obtained from percent inhibition studies in which various test concentrations were used. The binding value was calculated by linear regression.

Another experiment deals with T2, CB2 receptor (Homo sapiens, UniProt P34972).
T2 construct: expressed in transfected cells
In words: Binding assay for CB2 agonists or inverse agonists (SK-N-MC membranes, [3H]-CP-55,940). Conditions: for CB2 receptor binding percent inhibition: test concentration not stated; for IC50: calculated by linear regression from percent inhibition at various test concentrations, read-out: Cannabinoid CB2 Receptor Binding IC50; for inhibition at 1 µM: test concentration 1 μM (footnote 1), read-out: CB2 receptor binding percent inhibition. How it is done: as §1
as §2, with “The diluted membrane pellet was added with buffer, either a test compound or vehicle standard and the radioligand [H]^3+-CP-55,940 (0.2 mM) to the wells of a 96-well polypropylene plate. Non-specific binding was measured in wells containing WIN 55,212 (10 uM).” left out
as §3

Where [1] appears, read: read-out: CB1 receptor binding percent inhibition, test concentration 1 μM (footnote 1).

The structures appear in SMILES notation. Like-named read-outs stand apart in the source and are kept apart here.

T2 sequence (P34972 whole entry): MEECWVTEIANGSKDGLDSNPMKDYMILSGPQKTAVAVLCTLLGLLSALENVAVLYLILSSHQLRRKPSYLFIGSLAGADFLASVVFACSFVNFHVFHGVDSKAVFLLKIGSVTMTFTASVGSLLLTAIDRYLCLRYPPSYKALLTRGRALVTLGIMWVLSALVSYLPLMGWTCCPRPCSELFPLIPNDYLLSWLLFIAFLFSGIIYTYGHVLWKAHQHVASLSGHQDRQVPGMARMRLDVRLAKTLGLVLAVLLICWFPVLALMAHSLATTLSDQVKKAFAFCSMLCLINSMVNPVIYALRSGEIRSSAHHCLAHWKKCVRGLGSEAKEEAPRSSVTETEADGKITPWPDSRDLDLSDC
T1 sequence (P21554 whole entry): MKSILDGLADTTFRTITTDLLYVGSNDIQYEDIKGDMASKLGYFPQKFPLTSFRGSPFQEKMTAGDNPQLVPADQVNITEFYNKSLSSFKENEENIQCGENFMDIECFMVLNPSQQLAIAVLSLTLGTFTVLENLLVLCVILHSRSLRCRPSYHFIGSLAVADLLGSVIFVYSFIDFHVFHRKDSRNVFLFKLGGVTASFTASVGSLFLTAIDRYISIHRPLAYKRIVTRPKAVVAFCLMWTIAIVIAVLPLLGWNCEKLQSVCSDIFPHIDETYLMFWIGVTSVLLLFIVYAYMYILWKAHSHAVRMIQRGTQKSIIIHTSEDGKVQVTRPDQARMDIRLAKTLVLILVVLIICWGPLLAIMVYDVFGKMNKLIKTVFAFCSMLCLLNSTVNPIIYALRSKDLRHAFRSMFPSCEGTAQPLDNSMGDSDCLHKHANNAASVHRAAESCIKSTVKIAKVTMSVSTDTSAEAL

Turning to `O=C(NC1C2CC3CC(C2)CC1C3)c1nn(-c2ccc(Cl)cc2Cl)c2c1CCCCC2Cc1ccc(Cl)cc1` (centres unmarked) [Cpd 18, 8-(4-chloro-benzyl)-1-(2,4-dichloro-phenyl)-1,4,5,6,7,8-hexahydro-cycloheptapyrazole-3-carboxylic acid adamantan-2-ylamide], on CB1 receptor (setting [1]), the inhibition at 1 µM was found to be 3%. Also, the “CB2 receptor binding percent inhibition” value at CB2 receptor is 23%.
In the same order, the values of `O=C(NC12CC3CC(CC(C3)C1)C2)c1nn(C2CCCCC2)c2c1CCCCC2Cc1cccc(Cl)c1` (centres unmarked) [Cpd 19, 8-(3-chloro-benzyl)-1-cyclohexyl-1,4,5,6,7,8-hexahydro-cycloheptapyrazole-3-carboxylic acid adamantan-1-ylamide] are 18% and 51%.
Take `O=C(NC12CC3CC(CC(C3)C1)C2)c1nn(C2CCCCC2)c2c1CCCCC2Cc1ccc(Cl)cc1` (centres unmarked) [Cpd 20, 8-(4-chloro-benzyl)-1-cyclohexyl-1,4,5,6,7,8-hexahydro-cycloheptapyrazole-3-carboxylic acid adamantan-1-ylamide]: the inhibition at 1 µM at CB1 receptor (setting [1]) was found to be 4%. In addition, the “CB2 receptor binding percent inhibition” value on CB2 receptor was determined as 28%.
In the same order, the values of `O=C(NC12CC3CC(CC(C3)C1)C2)c1nn(C2CCCCC2)c2c1CCCCC2Cc1ccccc1Cl` (centres unmarked) [Cpd 21, 8-(2-chloro-benzyl)-1-cyclohexyl-1,4,5,6,7,8-hexahydro-cycloheptapyrazole-3-carboxylic acid adamantan-1-ylamide] are 32% and 26%.
In the same order, the values of `O=C(NC12CC3CC(CC(C3)C1)C2)c1nn(-c2ccc(Cl)cc2Cl)c2c1CCCCC2Cc1cccc(Cl)c1` (centres unmarked) [Cpd 22, 8-(3-chloro-benzyl)-1-(2,4-dichloro-phenyl)-1,4,5,6,7,8-hexahydro-cycloheptapyrazole-3-carboxylic acid adamantan-1-ylamide] are 58% and 25%.
The corresponding values for `O=C(NC1CCC1)c1nn(C2CCCCC2)c2c1CCCCC2Cc1ccccc1Cl` (centres unmarked) [Cpd 23, 8-(2-chloro-benzyl)-1-cyclohexyl-1,4,5,6,7,8-hexahydro-cycloheptapyrazole-3-carboxylic acid cyclobutylamide] are 0% and 24%.
For the compound `O=C(NC1CCC1)c1nn(-c2ccc(Cl)cc2Cl)c2c1CCCCC2Cc1cccc(Cl)c1` (centres unmarked) [Cpd 24, 8-(3-chloro-benzyl)-1-(2,4-dichloro-phenyl)-1,4,5,6,7,8-hexahydro-cycloheptapyrazole-3-carboxylic acid cyclobutylamide], on CB1 receptor (setting [1]), the inhibition at 1 µM amounted to 28%. For the same compound, on CB2 receptor, the “CB2 receptor binding percent inhibition” value worked out at 0%.
In the same order, the values of `O=C(NN1CCCCC1)c1nn(-c2ccc(Cl)cc2Cl)c2c1CCCCC2Cc1ccc(Cl)cc1` (centres unmarked) [Cpd 27, 8-(4-chloro-benzyl)-1-(2,4-dichloro-phenyl)-1,4,5,6,7,8-hexahydro-cycloheptapyrazole-3-carboxylic acid piperidin-1-ylamide] are 0% and 0%.
In the same order, the values of `O=C(NC1CCC1)c1nn(Cc2ccc(Cl)cc2)c2c1CCCCC2Cc1cccc(Cl)c1` (centres unmarked) [Cpd 29, 1-(4-chloro-benzyl)-8-(3-chloro-benzyl)-1,4,5,6,7,8-hexahydro-cycloheptapyrazole-3-carboxylic acid cyclobutylamide] are 13% and 18%.
A word on the IC50: it is the concentration that gives 50% inhibition. As to `O=C(NC1CCC1)c1nn(Cc2ccc(Cl)cc2)c2c1CCCCC2Cc1ccc(Cl)cc1` (centres unmarked) [Cpd 30, 1,8-bis-(4-chloro-benzyl)-1,4,5,6,7,8-hexahydro-cycloheptapyrazole-3-carboxylic acid cyclobutylamide], the inhibition at 1 µM amounted to 28% at CB1 receptor (setting [1]) and 65% at CB2 receptor. Also, the IC50 on CB2 receptor is 600 nM.
As for `O=C(NC1CC1)c1nn(C2CCCCC2)c2c1CCCCC2Cc1ccccc1Cl` (centres unmarked) [Cpd 31, 8-(2-chloro-benzyl)-1-cyclohexyl-1,4,5,6,7,8-hexahydro-cycloheptapyrazole-3-carboxylic acid cyclopropylamide], on CB1 receptor (setting [1]), the inhibition at 1 µM is 0%. Further, the “CB2 receptor binding percent inhibition” value at CB2 receptor was determined as 35%.
The corresponding values for `O=C(NC1CC1)c1nn(C2CCCCC2)c2c1CCCCC2Cc1cccc(Cl)c1` (centres unmarked) [Cpd 32, 8-(3-chloro-benzyl)-1-cyclohexyl-1,4,5,6,7,8-hexahydro-cycloheptapyrazole-3-carboxylic acid cyclopropylamide] are 0% and 0%.
The corresponding values for `O=C(NC1CC1)c1nn(C2CCCCC2)c2c1CCCCC2Cc1ccc(Cl)cc1` (centres unmarked) [Cpd 33, 8-(4-chloro-benzyl)-1-cyclohexyl-1,4,5,6,7,8-hexahydro-cycloheptapyrazole-3-carboxylic acid cyclopropylamide] are 0% and 0%.
In the same order, the values of `O=C(NC1CC1)c1nn(Cc2ccc(Cl)cc2)c2c1CCCCC2Cc1ccc(Cl)cc1` (centres unmarked) [Cpd 34, 1,8-bis-(4-chloro-benzyl)-1,4,5,6,7,8-hexahydro-cycloheptapyrazole-3-carboxylic acid cyclopropylamide] are 0% and 0%.
For `O=C(NC1CC1)c1nn(Cc2ccc(Cl)cc2)c2c1CCCCC2Cc1cccc(Cl)c1` (centres unmarked) [Cpd 35, 1-(4-chloro-benzyl)-8-(3-chloro-benzyl)-1,4,5,6,7,8-hexahydro-cycloheptapyrazole-3-carboxylic acid cyclopropylamide], the inhibition at 1 µM at CB1 receptor (setting [1]) is 22%. Also, at CB2 receptor, the “CB2 receptor binding percent inhibition” value amounted to 36%.
In the same order, the values of `O=C(NC1CCC1)c1nn(C2CCCCC2)c2c1CCCCC2Cc1cccc(Cl)c1` (centres unmarked) [Cpd 36, 8-(3-chloro-benzyl)-1-cyclohexyl-1,4,5,6,7,8-hexahydro-cycloheptapyrazole-3-carboxylic acid cyclobutylamide] are 25% and 0%.
The corresponding values for `O=C(NC1CCC1)c1nn(C2CCCCC2)c2c1CCCCC2Cc1ccc(Cl)cc1` (centres unmarked) [Cpd 37, 8-(4-chloro-benzyl)-1-cyclohexyl-1,4,5,6,7,8-hexahydro-cycloheptapyrazole-3-carboxylic acid cyclobutylamide] are 15% and 10%.
The corresponding values for `O=C(NC1CC1)c1nn(-c2ccc(Cl)cc2Cl)c2c1CCCCC2Cc1ccc(Cl)cc1` (centres unmarked) [Cpd 38, 8-(4-chloro-benzyl)-1-(2,4-dichloro-phenyl)-1,4,5,6,7,8-hexahydro-cycloheptapyrazole-3-carboxylic acid cyclopropylamide] are 39% and 0%.
Regarding `Cn1nc(C(=O)NC2CCC2)c2c1C(Cc1ccccc1Cl)CCCC2` (centres unmarked) [Cpd 39, 8-(2-chloro-benzyl)-1-methyl-1,4,5,6,7,8-hexahydro-cycloheptapyrazole-3-carboxylic acid cyclobutylamide], at CB1 receptor (setting [1]), the inhibition at 1 µM amounted to 0%. Further, the “CB2 receptor binding percent inhibition” value at CB2 receptor was 30%.
The corresponding values for `O=C(NC1CCC1)c1nn(C2CCCCC2)c2c1CCCCC2Cc1cccc(F)c1` (centres unmarked) [Cpd 43, 1-cyclohexyl-8-(3-fluoro-benzyl)-1,4,5,6,7,8-hexahydro-cycloheptapyrazole-3-carboxylic acid cyclobutylamide] are 14% and 42%.
With `CC12CCC(C1)C(C)(C)[C@H]2NC(=O)c1nn(C2CCCCC2)c2c1CCCCC2Cc1cccc(F)c1` (stereo partly drawn) [Cpd 44, 1-cyclohexyl-8-(3-fluoro-benzyl)-1,4,5,6,7,8-hexahydro-cycloheptapyrazole-3-carboxylic acid [(2S)-1,3,3-trimethyl-bicyclo[2.2.1]hept-2-yl]-amide], the IC50 on CB1 receptor (Cannabinoid CB1 Receptor Binding IC50, calculated by linear regression from percent inhibition at various test concentrations) is 200 nM; at CB2 receptor, 600 nM. Further, the inhibition at 1 µM on CB1 receptor (read-out: CB1 receptor binding percent inhibition) was found to be 82%; on CB2 receptor it was 75%.
`CC(C)(C)OC(=O)N1CCC(NC(=O)c2nn(C3CCCCC3)c3c2CCCCC3Cc2cccc(F)c2)CC1` (centres unmarked) [Cpd 46, 4-{[1-cyclohexyl-8-(3-fluoro-benzyl)-1,4,5,6,7,8-hexahydro-cycloheptapyrazole-3-carbonyl]-amino}-piperidine-1-carboxylic acid tert-butyl ester]: the inhibition at 1 µM at CB1 receptor (setting [1]) came to 45%. At CB2 receptor, the “CB2 receptor binding percent inhibition” value is 0%.
